# According to patent publication US7732599B2, “Process for preparing tetrahydrobiopterin and analogs of tetrahydrobiopterin” (BioMarin Pharmaceutical Inc., priority 2003, dated 2010):
# Test: Solubility in the reaction solvent dimethylaminoacetate at room temperature
# Assay type: physicochemical
# Conditions: described as low solubility
# Procedure: The conversion of the primary hydroxyl of L-Neopterin to a thioether was performed to prepare 6-((1R,2R)-1,2-dihydroxy-3-phenylthiopropyl)-2-[(methylethyl)amino]-3-hydropteridin-4-one (the compound labeled “15” in FIG. 4). To a flask containing 50 grams of 6-((2S,1R)-1,2,3-trihydroxypropyl)-2-[(1Z)-1-aza-2-(dimethylamino)vinyl]-3-hydropteridin-4-one (DMA-Neopterin, the compound labeled “6” in FIG. 2) and 400 ml of dimethylaminoacetate was added to the flask. To this stirring mixture 1 molar equivalent of diphenyl disulfide and tributylphosphine were added to the flask. […] It is believed that the thioether product is more soluble in dimethylaminoacetate. The reaction mixture was allowed to was allowed to stir for 4 hours at room temperature. Nine grams of the thioether product was isolated.
compound,measurement,value
"CN(C)C=Nc1nc2ncc([C@@H](O)[C@@H](O)CO)nc2c(=O)[nH]1 [DMA-Neopterin, 6-((2S,1R)-1,2,3-trihydroxypropyl)-2-[(1Z)-1-aza-2-(dimethylamino)vinyl]-3-hydropteridin-4-one]",solubility in dimethylaminoacetate,approximately 3.5 mg/ml
